From patent US20210267996A1, “Compounds for inhibition of inflammation” (Children`s Medical Center Corporation, priority 2018, published 2021)
Entries after “also recorded” stand apart in the source; their conditions may differ.

Tests used:
[1] = tested on: ASC specks; test: ASC speck formation in LPS-primed THP-1 cells plus nigericin; format: cell-based, human; details: 30 μM, 1 hr before nigericin
Description: (§1) Immunostaining and confocal microscopy: cells grown on coverslips were fixed for 15 min with 4% paraformaldehyde in PBS, permeabilized for 5 min in 0.1% Triton X-100 in PBS and blocked using 5% BSA for 1 hr. Then, cells were stained with the indicated primary antibodies followed by incubation with fluorescent-conjugated secondary antibodies (Jackson ImmunoResearch). Nuclei were counterstained with DAPI (4,6-diamidino-2-phenylindole) (Sigma-Aldrich). Slides were mounted using Aqua-Poly/Mount (Dako). Images were captured using a laser scanning confocal microscope (Olympus Fluoview FV1000 Confocal System) with a 63× water immersion objective and Olympus Fluoview software (Olympus). All confocal images are representative of three independent experiments.
Nigericin activates the assembly of the NLRP3 canonical inflammasome using an adaptor called apoptosis-associated speck-like protein containing a caspase recruitment domain (ASC), which can be visualized in immunofluorescent microscopy as specks. When LPS-primed THP-1 cells were treated with nigericin in the absence of inhibitors, ASC specks were detected in 30% of cells (FIG. 36). As expected, speck formation was not inhibited by z-VAD-fmk, since caspase activation occurs downstream of inflammasome assembly.
(§2) Cell death was determined by CytoTox96 assay. […] Cell death was determined by CytoTox96 assay. […] Shown are immunoblots of whole cell lysates harvested 0.5 hr later. […] Representative images of ASC specks (arrowheads) and mean±s.d. percent of cells with ASC specks analyzed 20 min later (FIG. 47). Whole cell lysates (WCL) and culture supernatants (Sup) were harvested 30 min after adding nigericin and immunoblotted with the indicated antibodies (FIG. 50). Caspase-1 activity was assayed 30 min after adding nigericin using a cell-permeable fluorescence dye FAM-YVAD-FMK (FIG. 52). […] Representative images of ASC specks (arrowheads) and mean±s.d. percent of cells with ASC specks analyzed 20 min later (FIGS. 48 and 49). Whole cell lysates (WCL) and culture supernatants (Sup), harvested 30 min after adding nigericin, were analyzed by immunoblot (FIG. 51). […] The Figures show representative confocal microscopy images and quantification of proportion of cells with GSDMD membrane staining and pyroptotic bubbles. Arrows indicate GSDMD staining of pyroptotic bubbles. […] FIGS. 57 and 58, dose response curve of the effect of Bay 11-7082 on caspase-1 (FIG. 57) and caspase-11 (FIG. 58) activity against a fluorescent peptide substrate. […] (FIG. 60). FIGS. 61 and 62 show dose response curve of the effect of Bay 11-7082 on liposome leakage induced by 0.3 μM human GSDMD-3C (FIG. 61) or mouse GSDMA3-3C (FIG. 62) plus 0.15 μM 3C protease. […] 2-fold dilutions of Bay 11-7082 from 5-40 μM were used. Graphs show the mean±s.d; data are representative of three independent experiments. *P<0.05, **P<0.01.

[2] = tested on: caspase-1; test: Caspase-1 activity assay in cells (FAM-YVAD-FMK); format: cell-based, human; details: 30 μM, 30 min after nigericin
Description: Caspase-1 activity assay in cells: to measure caspase-1 activation, THP-1 cells were seeded into 96-well plates and differentiated with PMA. After the indicated treatments, cells were incubated with a fluorescent active caspase-1 substrate FAM-YVAD-FMK (Immunochemistry Technologies). Samples were read on a BioTek Synergy 2 plate reader.
as §2

[3] = tested on: THP-1 cells; test: Canonical inflammasome pyroptosis, LPS-primed THP-1 cells plus nigericin; format: cell-based, human; details: THP-1, nigericin
Description: Cell viability assay. […] Primed THP-1 cells were pretreated with each test compound for 1 hr before addition of 20 μM nigericin or medium as control. The number of surviving cells was determined by CellTiter-Glo assay 1.5 hrs later. The final percent cell viability was calculated using the formula [(luminescencetest compound−luminescencencenegative control)/(luminescencencepositive control−luminescencenegative control)]×100, where wells with only LPS were used as positive controls and wells treated with LPS and nigericin were used as negative controls.
Cells were verified to be free of mycoplasma contamination.
Cytotoxicity and cell viability assays: cell death and cell viability were determined by the lactate dehydrogenase release assay using the CytoTox 96 Non-Radioactive Cytotoxicity Assay kit (Promega) and by measuring ATP levels using the CellTiter-Glo Luminescent Cell Viability Assay (Promega), respectively, according to the manufacturer's instructions. Luminescence and absorbance were measured on a BioTek Synergy 2 plate reader.
In FIGS. 4, 6, and 8, PMA-differentiated LPS-primed human THP-1 were pre-treated with indicated concentrations of each compound for 1 h before adding nigericin or medium. The number of surviving cells was determined by CellTiter-Glo assay (FIGS. 4 and 6) and IL-1β in culture supernatants was assessed by ELISA (FIG. 8) 2 hrs later. […] In FIGS. 8 and 9, 40 μM concentration of test compounds were added. […] Graphs show the mean±s.d. and data shown are representative of three independent experiments. **P<0.01.

[4] = tested on: mouse iBMDMs; test: Processing of caspase-1, GSDMD and IL-1β in iBMDMs (immunoblot); format: cell-based; details: 1 hr time point
Description: (§3) FIG. 97 contains a bar graph showing results of an experiment where LPS-primed THP-1 cells, after medium removal, were incubated with probe FAM-YVAD-FMK in FLICA assay buffer for another 0.5 hr before fluorescence reading. iBMDMs were pretreated with disulfiram, Bay 11-7082, necrosulfonamide (NSA) or z-VAD-fmk for 1 hr before treated or not with Nigericin for 0.5 hr. Whole cell lysates and culture supernatants were immunoblotted with the indicated antibodies.
as §3, with “FIG. 98” for “FIG. 97”, “for 1” for “for 0.5”
Canonical inflammasome assembly activates caspase-1, which cleaves pro-IL-1β and GSDMD, and the latter is needed to release processed IL-1β and to induce pyroptosis. To assess which steps in NLRP3-mediated inflammation were inhibited post ASC speck formation, LPS-primed THP-1 cells were treated with vehicle, 30 μM z-VAD-fmk or disulfiram 1 hour before adding nigericin, and cleavage and activation of caspase-1, GSDMD, and pro-IL-1β were analysed by immunoblot of whole cell lysates 30 min later and 1 hr later. Secretion of processed IL-1β was also assessed by immunoblot of culture supernatants. […] The 1 hr time point is relevant as the cell death and IL-1β release measurements used cells stimulated with nigericin for 1 and 2 hrs, respectively.

[5] = tested on: caspase-1, GSDMD, and pro-IL-1β; test: Caspase-1, GSDMD, pro-IL-1β cleavage and IL-1β secretion by immunoblot, THP-1; format: cell-based, human; details: 30 μM
Description: Immunoblot analysis: cell extracts were prepared using RIPA buffer (50 mM Tris-HCl pH 7.4, 150 mM NaCl, 1 mM EDTA, 1% Triton X-100, 0.1% SDS, 0.5% deoxycholate) supplemented with a complete protease inhibitor cocktail (Roche) and a PhosSTOP phosphatase inhibitor cocktail (Roche). Samples were subjected to SDS-PAGE and the resolved proteins were then transferred to a PVDF membrane (Millipore). Immunoblots were probed with indicated antibodies and visualized using a SuperSignal West Pico chemiluminescence ECL kit (Pierce).
To assess which steps in NLRP3-mediated inflammation were inhibited post ASC speck formation, LPS-primed THP-1 cells were treated with vehicle or 30 μM z-VAD-fmk, disulfiram or Bay 11-7082 1 hr before adding nigericin, and cleavage and activation of caspase-1, GSDMD, and pro-IL-1β were analysed by immunoblot of whole cell lysates 30 min later (FIG. 50). Secretion of processed IL-1β was also assessed by immunoblot of culture supernatants. […] Because immunoblots are not quantitative, caspase-1 activity 30 min after adding nigericin was also assessed using a fluorescent substrate in intact cells. […] Next, the effect of z-VAD-fmk, disulfiram and Bay 11-7082 on LPS+nigericin-induced GSDMD pore formation was assessed by immunofluorescence microscopy using a monoclonal antibody that was generated that recognizes both uncleaved GSDMD and its pore form (FIGS. 53, 54, and 64-66). In the absence of any inhibitor, the GSDMD antibody stained both the cytosol and the plasma membrane of LPS plus nigericin treated cells, which formed characteristic pyroptotic bubbles (See Reference 10). […] Thus, disulfiram and Bay 11-7082 inhibit multiple steps leading to canonical inflammasome-induced pyroptosis and inflammatory cytokine release, including priming, inflammasome assembly, inflammatory caspase activation, pro-inflammatory cytokine processing and GSDMD pore formation.
as §2
Canonical inflammasome assembly activates caspase-1, which cleaves pro-IL-1β and GSDMD, and the latter is needed to release processed IL-1β and to induce pyroptosis. […]

[6] = tested on: GSDMD pore formation; test: GSDMD membrane staining and pyroptotic bubbles, immunofluorescence; format: cell-based, human; details: 30 μM, 30 min after nigericin
Description: as §1
To assess which steps in NLRP3-mediated inflammation were inhibited post ASC speck formation, LPS-primed THP-1 cells were treated with vehicle or 30 μM z-VAD-fmk, disulfiram or Bay 11-7082 1 hr before adding nigericin, and cleavage and activation of caspase-1, GSDMD, and pro-IL-1β were analysed by immunoblot of whole cell lysates 30 min later (FIG. 50). Secretion of processed IL-1β was also assessed by immunoblot of culture supernatants. […] Because immunoblots are not quantitative, caspase-1 activity 30 min after adding nigericin was also assessed using a fluorescent substrate in intact cells. […] Next, the effect of z-VAD-fmk, disulfiram and Bay 11-7082 on LPS+nigericin-induced GSDMD pore formation was assessed by immunofluorescence microscopy using a monoclonal antibody that was generated that recognizes both uncleaved GSDMD and its pore form (FIGS. 53, 54, and 64-66). […]
Cell death was determined by CytoTox96 assay. […] Cell death was determined by CytoTox96 assay. […] Representative images of ASC specks (arrowheads) and mean±s.d. percent of cells with ASC specks analyzed 20 min later (FIG. 47). […] Caspase-1 activity was assayed 30 min after adding nigericin using a cell-permeable fluorescence dye FAM-YVAD-FMK (FIG. 52). […]

For `COC(=O)C[C@@H](C(=O)CF)N(C(=O)[C@@H](NC(=O)OCc1ccccc1)C(C)C)[C@@H](C)C(N)=O` [z-VAD-fmk], the ASC speck formation [1] was “not inhibited”, the “caspase-1 activity in intact cells” value [2] was “completely inhibited” and the “inhibition of canonical inflammasome pyroptosis” value [3] was “inhibits the canonical inflammasome pathway”. The “processing of caspase-1, GSDMD and IL-1β” value [4] was “still inhibited processing”, the “processed IL-1β in culture supernatants” value [5] was “only detected in the culture supernatants in the absence of any inhibitor; also recorded: only detected in culture supernatants in the absence of either inhibitor” and the “caspase-1, GSDMD and pro-IL-1β cleavage” value ([5]; 30 min after nigericin) was “dramatically reduced; also recorded: processing was reduced”. The “processing of caspase-1, GSDMD and pro-IL-1β” value ([5]; 60 min after nigericin) was “still showed little cleavage” and the “GSDMD membrane staining and pyroptotic bubbles” value [6] was “completely blocked”.
